Data published in patent EP1605929B1, “NON-STEROIDAL ANTI-INFLAMMATORY DRUG DOSING REGIMEN” (McNeil-PPC, Inc., priority 2003, dated 2004).

Columns and labels:
[1] = Therapeutic duration of action of an effective immediate release dose, from dosing instructions in product labeling
Description: As used herein, "ATDAIRD" shall mean the average therapeutic duration of action of an effective immediate release dose" of a particular active ingredient. For example, the typical duration of action of an immediate release dose of ibuprofen or ketoprofen is about 4 to about 6 hours. […] The therapeutic duration of action of a particular active ingredient can readily be determined from the dosing instructions in the labeling for immediate release products containing that particular active ingredient.

[2] = system: moderate to severe post-operative dental pain; assay: PK/PD dental pain study, pain relief scores and pain intensity differences over a 12 hour observation period; type: in vivo, human
Description: A double-blind, randomized, parallel, placebo-controlled, single center, PK/PD dental pain study was conducted over a 12 hour observation period to evaluate the pharmacokinetic, pharmacodynamic, efficacy and safety profiles of certain ibuprofen dosing regimens. Specifically, a single dose of 600 mg ibuprofen extended release caplets was compared with equivalent total doses of ibuprofen immediate release 200 mg caplets administered in three different dosing regimens as well as placebo in the treatment of moderate to severe post-operative dental pain.
The ibuprofen was administered as ibuprofen extended release 600 mg caplets or one or more ibuprofen immediate release 200 mg caplets.
The patients evaluated in this study consisted of male or non-pregnant and non-lactating female out-patient volunteers, 16 years of age or older, complaining of moderate to severe pain following the surgical extraction of three or four third molars with at least one partial or complete bony impacted third mandibular molar. The term impacted included: partial bony impaction, bony impaction, or complicated bony impaction. A total of 210 patients were entered into the study. 208 patients were eligible for the efficacy analyses.
All patients who met the entrance criteria were enrolled in one of two study sub-groups. One sub-group of patients had both pharmacokinetic and pharmacodynamic evaluation (PK group). The other sub-group of patients had only the analgesic efficacy evaluations (non-PK group). A separate randomization schedule was used for each of the two sub-groups. Patients from both subgroups were assigned at random to one of the five following treatments:
Patients' assessments of pain intensity and pain relief as well as blood samples for plasma ibuprofen analysis were obtained at the study site at hours 0, 0.25, 0.5, 1, 1.5, 2, 2.5, 3, 4, 4.5, 5, 6, 7, 8, 8.5, 9, 10, 11 and 12. A stopwatch technique was used to measure the onset of meaningful pain relief.

With `COc1ccc2cc([C@H](C)C(=O)O)ccc2c1` [naproxen] the “ATDAIRD (average therapeutic duration of action of an effective immediate release dose)” value (shortened to “ATDAIRD”) [1] was 10 h.
For `CC(C)Cc1ccc(C(C)C(=O)O)cc1` (centres unmarked) [ibuprofen, 2-(4-isobutylphenyl)-propionic acid], the “ATDAIRD” value [1] was 5 h, the pain relief ([2]; 400/200/0 administration (immediate release, 400 mg at 0 hour; 200 mg at 4 hours), entire 12 hour study period, Figure 2) was “excellent pain relief” and the pain relief ([2]; 400/200/0 treatment (immediate release, 400 mg at 0 hour; 200 mg at 4 hours), first four hours, Figure 2) was “superior pain relief over the other treatments”. For the same molecule, the pain relief scores ([2]; 400/200/0 treatment, 4 to 12 hour interval, no further ibuprofen after the first four hours, Figure 2) was “highest pain relief scores”, the “pain intensity differences (PID)” value ([2]; 400/200/0 treatment, 12 hour study period, particularly after the four hour mark, Figure 3) was “best PID” and the pain relief ([2]; 600/0/0 immediate release treatment (600 mg single dose at 0 hour), first four hours, Figure 2) was “superior pain relief over the other treatments”.
For `CC(C(=O)O)c1cccc(C(=O)c2ccccc2)c1` (centres unmarked) [ketoprofen], the “ATDAIRD” value [1] was 5 h.
